Experimental data from patent US20220062166A1, “Self-Gelling Solutions for Administration of Therapeutics to the Inner Ear” (Spiral Therapeutics, Inc., priority 2019, published 2022).

Legend:
HEI-OC1 cells [1] = assay: Release of mitochondrial cyt c in HEI-OC1 cells with CisPt (flow cytometry); format: cell-based; conditions: HEI-OC1 cells; after CisPt alone or pre-incubated with LPT99
Procedure: Flow cytometry was also used to characterize the effect of LPT99 in the release of mitochondrial cyt c in HEI-OC1 cells in vitro with CisPt prevention. Results
The effect of LPT99 on proliferation of non-apoptotic cells was studied. A549 cells were cultured in the presence of LPT99 for up to 6 days; the cell number was monitored by flow cytometry, and doubling time was calculated.

HEI-OC1 cells [2] = assay: HEI-OC1 cell viability with CisPt; format: cell-based; conditions: CisPt 0 to 5 μg/mL
[3] = GLP auditory safety study in rats after single TT administration
Procedure: The study consisted of 10 groups of rats: 6 groups for toxicology (Groups 1 to 6, 20 males and 20 females per group), and 4 groups for toxicokinetics (Groups 7 to 10, 6 males and 6 females per group).
All animals were assessed weekly for body weights and qualitative food consumption. In addition, otoscopic evaluation of the dosing sites (tympanic membrane, Groups 1 to 6) and ABR testing for hearing function were performed at predosing; and on Days 1, 7, and/or 14. Animals in the toxicology groups (Groups 1 to 6) were sacrificed on Day 1 (10 males and 10 females per group) and Day 14 (the remaining 10 males and 10 females per group). At necropsy, terminal blood samples were tested for hematology, serum chemistry, and coagulation parameters. Gross observations were recorded, and selected organs were weighed. One ear per animal in Groups 1 to 5 was collected and processed for cytocochleogram assessment.

Molecule | release of mitochondrial cyt c (HEI-OC1 cells [1]) | HEI-OC1 cell viability IC50 of CisPt (HEI-OC1 cells [2]) [µg/mL] | weight-normalized heart weights ([3]; Day 14, males, 400 mg/mL gentamicin vs saline controls, p≥0.05) | otoscopic scores (erythema, edema, wounds) of tympanic membranes ([3]; Days 1, 7, 14 vs control)
N.N.[Cl][Pt][Cl] [CisPt, cisplatin, reference compound] | 28% ±6.6% | 4.47 ± 1.94 | – | –
gentamicin [reference compound] | – | – | increased weight-normalized heart weights | increases in otoscopic scores
